One assay deals with P2X. Kind of assay: Cerep binding, agonist radioligand. The following applies: 10 μM. The source says: (§1) In addition to the HDAC profiling performed, we also queried 4b for any apparent potential off-target effects, which could complicate any finding of efficacy or adverse events in vivo due to ‘polypharmacy’. This was accomplished by screening against a ‘diversity panel’ of 72 binding and 29 enzyme assays, comprised of roughly equal numbers of selective central and peripheral therapeutically relevant targets (Cerep Diversity Profile). This panel included representative targets from diverse enzyme families, G protein coupled receptors, steroid nuclear receptors, voltage- and ligand-gated ion channels. While not totally inclusive, it is a useful tool for discovery compounds to assess their viability as proof of concept molecules to specifically query a particular target. 4b was initially screened at 10 µM in duplicate. The full set of results is provided as Table S1. […] This clean in vitro profile was considered acceptable to proceed to ADME and pharmacokinetic studies.

Another assay deals with T1, ETA (h) (Homo sapiens, UniProt P25101).
T1 construct: purchased Cerep (Diversity Profile)
T1 sequence (P25101 21-427): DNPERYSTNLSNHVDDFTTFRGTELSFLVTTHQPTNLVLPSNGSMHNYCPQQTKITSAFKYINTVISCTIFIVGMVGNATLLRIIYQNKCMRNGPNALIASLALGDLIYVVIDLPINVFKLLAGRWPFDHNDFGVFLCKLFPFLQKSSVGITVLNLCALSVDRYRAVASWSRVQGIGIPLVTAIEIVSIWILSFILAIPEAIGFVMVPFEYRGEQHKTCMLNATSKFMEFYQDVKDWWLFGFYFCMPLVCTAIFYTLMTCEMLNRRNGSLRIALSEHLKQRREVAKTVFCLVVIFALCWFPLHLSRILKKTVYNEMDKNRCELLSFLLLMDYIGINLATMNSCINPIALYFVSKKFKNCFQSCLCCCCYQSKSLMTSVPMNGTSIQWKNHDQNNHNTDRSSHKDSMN
Kind of assay: Cerep binding, agonist radioligand. Particulars: read-out: % inhibition of control specific binding.
Source text: as §1

A further assay concerns AR (h). The assay can be described thus: Cerep binding, agonist radioligand. Further details: species or system human. The following applies: 10 μM.
Source text: as §1

A further assay has as its system HDACs. The assay can be described thus: Biochemical HDAC assays (whole panel). Set-up: species or system human. Particulars: up to 50 µM. From the text: (§2) To assess the biochemical and cellular potency of 4b and its conversion products/metabolites, we utilized the two-step fluorogenic assay which measures the HDAC-mediated catalytic conversion of synthetic acetylated lysine substrates. In brief, on deacetylation of the substrates by HDAC activity, a protease site is unmasked which allows subsequent trypsin-mediated cleavage and release of the highly flourescent AMC molecules in a subsequent step of the assay. The substrates used were Lys_Ac_AMC (Bachem I-1875) for HDAC3 and (Ac)Arg-Gly-Lys(Ac) (Bachem I-1925) for HDAC1 and HDAC2. […] However, the relatively labile and sterically more demanding trifluoracetyl group is readily hydrolyzed by the catalytically less avid Class IIa enzymes, allowing measurement of Class IIa activity using the 2-step fluorogenic assay. […]
(§3) For evaluation of the class selectivity of the compounds, we assessed inhibition against purified recombinant human full length HDAC1 (cat# 50051), HDAC2 (cat# 50052), HDAC3-NcoR2 (cat# 50003) and HDAC8 (cat# 50008): as representative of Class I activity; catalytic domain HDAC4(αα 648–1057), HDAC5 (αα 657–1123; cat # 50005), HDAC7 (αα 518-end; cat # 50007) and HDAC9 (αα 604–1066; cat # 50009) activity: representing all Class IIa activity; and full length HDAC6 (cat#50006): representing Class IIb activity. […]

The next assay concerns the target T2, CRF1 (h) (Homo sapiens, UniProt P34998).
T2 construct: purchased Cerep (Diversity Profile)
The assay can be described thus: Cerep binding, agonist radioligand. Particulars: read-out: % inhibition of control specific binding.
Source text: as §1

The target in the next assay is T3, B1 (h) (Homo sapiens, UniProt P46663).
T3 construct: purchased Cerep (Diversity Profile)
T3 sequence (P46663 whole entry): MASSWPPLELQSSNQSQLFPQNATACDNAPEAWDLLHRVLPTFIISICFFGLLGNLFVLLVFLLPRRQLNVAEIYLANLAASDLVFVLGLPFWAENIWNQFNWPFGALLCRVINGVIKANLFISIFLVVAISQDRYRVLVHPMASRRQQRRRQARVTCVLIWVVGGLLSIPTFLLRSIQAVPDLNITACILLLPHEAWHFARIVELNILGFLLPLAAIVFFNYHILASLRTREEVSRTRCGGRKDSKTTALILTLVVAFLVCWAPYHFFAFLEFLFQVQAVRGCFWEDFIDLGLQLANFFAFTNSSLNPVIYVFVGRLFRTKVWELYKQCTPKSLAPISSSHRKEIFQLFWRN
The assay can be described thus: Cerep binding, agonist radioligand. Particulars: read-out: % inhibition of control specific binding.
Source text: as §1

Another assay concerns BZD (central). The assay can be described thus: Cerep binding, agonist radioligand. The following applies: 10 μM.
Source text: as §1

A further assay deals with T4, HDAC5 (Homo sapiens, UniProt Q9UQL6).
T4 construct: HDAC5 (αα 657–1123; cat # 50005); purchased BPS Bioscience (San Diego, CA) 50005
T4 sequence (Q9UQL6 656-1122): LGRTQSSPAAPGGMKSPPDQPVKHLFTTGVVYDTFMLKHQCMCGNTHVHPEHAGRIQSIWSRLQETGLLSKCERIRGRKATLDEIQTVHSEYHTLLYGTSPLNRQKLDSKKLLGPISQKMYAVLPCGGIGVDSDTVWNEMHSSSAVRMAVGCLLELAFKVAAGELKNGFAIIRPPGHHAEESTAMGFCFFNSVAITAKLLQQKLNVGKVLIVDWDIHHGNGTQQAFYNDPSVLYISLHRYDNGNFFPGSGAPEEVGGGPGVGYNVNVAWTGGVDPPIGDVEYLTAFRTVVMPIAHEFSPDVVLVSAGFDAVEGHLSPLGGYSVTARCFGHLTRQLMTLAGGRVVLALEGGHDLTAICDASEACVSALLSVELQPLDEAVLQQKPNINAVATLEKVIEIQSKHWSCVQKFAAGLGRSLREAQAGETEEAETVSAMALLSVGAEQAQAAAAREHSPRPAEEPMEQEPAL
The assay can be described thus: Two-step fluorogenic deacetylase assay, recombinant HDAC5. Format: biochemical. The following applies: up to 50 µM.
Source text: as §2, §3

For the next assay, the target named is T5, HDAC7 (Homo sapiens, UniProt Q8WUI4).
T5 construct: HDAC7 (αα 518-end; cat # 50007); purchased BPS Bioscience (San Diego, CA) 50007
T5 sequence (Q8WUI4 518-952 limits assumed): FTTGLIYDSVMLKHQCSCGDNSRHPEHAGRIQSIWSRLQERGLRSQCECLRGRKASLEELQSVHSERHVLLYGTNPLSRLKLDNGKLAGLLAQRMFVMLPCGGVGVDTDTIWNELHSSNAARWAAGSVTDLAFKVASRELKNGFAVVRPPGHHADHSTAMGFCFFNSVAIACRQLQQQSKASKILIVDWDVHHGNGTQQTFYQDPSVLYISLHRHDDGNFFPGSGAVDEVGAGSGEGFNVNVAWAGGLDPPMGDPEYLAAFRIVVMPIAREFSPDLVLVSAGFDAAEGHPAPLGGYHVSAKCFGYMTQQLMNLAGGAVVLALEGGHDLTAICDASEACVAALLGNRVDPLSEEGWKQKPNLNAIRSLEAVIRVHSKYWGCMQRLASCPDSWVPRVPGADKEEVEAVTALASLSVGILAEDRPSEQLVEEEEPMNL
Kind of assay: Two-step fluorogenic deacetylase assay, recombinant HDAC7. Format: biochemical. Particulars: up to 50 µM.
Source text: as §2, §3

T2 sequence (P34998 24-415): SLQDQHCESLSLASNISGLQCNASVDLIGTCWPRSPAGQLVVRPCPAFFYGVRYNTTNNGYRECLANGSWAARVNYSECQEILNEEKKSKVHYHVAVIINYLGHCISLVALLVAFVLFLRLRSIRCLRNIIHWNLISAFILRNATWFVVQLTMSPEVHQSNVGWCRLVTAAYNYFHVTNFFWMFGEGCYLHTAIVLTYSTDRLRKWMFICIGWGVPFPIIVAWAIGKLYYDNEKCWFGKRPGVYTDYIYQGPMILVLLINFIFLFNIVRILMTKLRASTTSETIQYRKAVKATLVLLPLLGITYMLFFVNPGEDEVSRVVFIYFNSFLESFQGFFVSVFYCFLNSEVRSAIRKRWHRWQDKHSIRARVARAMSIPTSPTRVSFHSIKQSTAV

What is called inhibition is the change of the read-out against control, counted positive when it falls. For `O=C(CCCCCc1nc2ccccc2[nH]1)Nc1ccccc1` [Compound C1, 6-(1-H-benzo[d]imidazol-2-yl)-N-phenylhexanamide], the “% inhibition of control specific binding” value with P2X amounted to 5%; in the assay with AR (h), 3%. Further, on ETA (h), the inhibition at 10 µM was 2%. For the same molecule, the “activity in the biochemical HDAC assays” value in the assay on HDACs is listed as “no activity”.

On to `Nc1ccccc1NC(=O)CCCCCC(=O)Nc1ccccc1` [Compound 4b], for which the inhibition at 10 µM at CRF1 (h) was determined as 0%; at B1 (h), 5%. Further, the “% inhibition of control specific binding” value in the assay with BZD (central) turned out to be 4%. The “activity against HDAC5” value at HDAC5 is “No activity”. The “activity against HDAC7” value on HDAC7 is “No activity”.

Source of the values: paper PMC3433414, “Oral Administration of the Pimelic Diphenylamide HDAC Inhibitor HDACi 4b Is Unsuitable for Chronic Inhibition of HDAC Activity in the CNS In Vivo” (PLoS ONE, 2012).
